What all share (assay type): cell-based
In one experiment the test system is S. aureus (ATCC 25923). The experiment can be described thus: antibacterial microdilution assay, S. aureus. The settings on record: for MIC: Staphylococcus aureus, ATCC25923, 6 h at 37 °C, read-out: MIC against S. aureus. As for the experimental part: (§1) The isolates were evaluated in vitro for their cytotoxic activities against two human cancer cell lines, namely lung carcinoma (A549) and colon adenocarcinoma (DLD-1), as well as against one healthy cell line (WS1) using the resazurin reduction test. Etoposide was used as a positive control (IC50 ≤ 1.0 µM). […] The antibacterial activity of isolated compounds was also evaluated in vitro against E. coli and S. aureus using the microdilution assay with gentamycin as a positive control (MIC < 0.1 µg/mL).
(§2) Antibacterial activity was evaluated using the microdilution method with some modifications. Briefly,
(§3) exponentially growing bacteria were plated in 96-well flat-bottom microplates (BD Falcon) at a density of
(§4) 5 × 103 Gram-negative E. coli (ATCC 25922) or 40 × 103 Gram-positive S. aureus (ATCC 25923) per
(§5) well in 100 μL nutrient broth (Difco). Increasing concentrations of compounds in DMSO (Sigma-Aldrich)
(§6) were then added (100 μL per well). The final concentration of DMSO in the culture medium was
(§7) maintained at 0.25% (v/v) to avoid solvent toxicity. Fifty microliters of 4% resazurin was added to each
(§8) well and the microplates were incubated for 6 h at 37 °C. Absorbance was measured after 6 h on an
(§9) automated 96-well Varioskan plate reader (Thermo-Labsystems) at wavelengths of 600 nm and 660 nm
(§10) for E. coli and S. aureus respectively.
Background: In broth dilution the organism is exposed to a series of concentrations in liquid medium.

The next experiment concerns lung carcinoma (A549). The experiment can be described thus: cytotoxicity, resazurin reduction test, A549. The following applies: Homo sapiens, 48 h incubation, read-out: IC50 (concentration inhibiting 50% of cell growth), A549. The protocol: as §1
(§11) 23-Oxo-3,4-seco-9βH-lanosta-4(28),7-diene-3,26-dioic acid (9): white amorphous solid; [α]22 −26.9° (c
(§12) Cytotoxic activity bioassay
(§13) Lung carcinoma (A549), colon adenocarcinoma (DLD-1) and normal skin fibroblast (WS1) human cell
(§14) lines were purchased from the American Type Culture Collection (ATCC). All cell lines were cultured in […]
(§15) solvent toxicity. Cytotoxicity was assessed using resazurin reduction test on an automated 96-well
(§16) Fluoroskan Ascent F1TM plate reader (Labsystems) using excitation and emission wavelengths of 530 nm
(§17) and 590 nm, respectively. Fluorescence was proportional to the cellular metabolic activity in each well.
(§18) Survival percentages were defined as the fluorescence in experimental wells compared to that in control
(§19) wells after subtraction of blank values. Cytotoxicity results were expressed as mean ± standard deviation […]

The test system of experiment [1] is normal skin fibroblast (WS1). The experiment can be described thus: cytotoxicity, resazurin reduction test, WS1. The settings on record: Homo sapiens, WS1 healthy cell line, 48 h incubation, read-out: IC50 (concentration inhibiting 50% of cell growth), WS1. As for the experimental part: as §1, §11, §12, §13, §14, §15, §16, §17, §18, §19
A general note: Resazurin is reduced to fluorescent resorufin, in cell work by metabolically active cells.

The subject of experiment [2] is colon adenocarcinoma (DLD-1). In words: cytotoxicity, resazurin reduction test, DLD-1. The settings on record: Homo sapiens, 48 h incubation, read-out: IC50 (concentration inhibiting 50% of cell growth), DLD-1. As for the experimental part:
as §1, §11, §12, §13, §14, §15, §16, §17, §18, §19

The next experiment concerns E. coli (ATCC 25922). In words: antibacterial microdilution assay, E. coli. The following applies: 6 h at 37 °C. As for the experimental part:
as §1, §2, §3, §4, §5, §6, §7, §8, §9, §10

pIC50: −log10 of the molar value. Converted amounts (≈) assume the structure as drawn.

In general, MIC refers to the lowest concentration found to suppress growth. `C=C(C)C1CC=C2C(CCC23C(=C)CCC3(C)C(C)CC(=O)C=C(C)C(=O)O)C1(C)CCC(=O)OC` (single isomer, unassigned; (-)) [Compound 1, (−)-rel-abiesonic acid 3-methyl ester]: in the experiment with S. aureus (ATCC 25923), the MIC came to 25 µM (≈ 12.4 µg/mL).

Consider `C=C(C)C1CC=C2C(CCC23C(=C)CCC3(C)C(C)CC(=O)C=C(C)C(=O)O)C1(C)CCC(=O)O` (centres unmarked) [Compound 6, abiesonic acid], for which the pIC50 in the experiment on lung carcinoma (A549) was 4.66.

In the case of `C=C(CC(=O)CC(C)C1CCC2(C)C3CCC4C(C)(C)C(O)CCC45CC35CCC12C)C(=O)O` (single isomer, unassigned; (+)) [Compound 4, (+)-rel-3α-hydroxy-23-oxocycloart-25(27)-en-26-oic acid], in the experiment on S. aureus (ATCC 25923), the MIC was determined as 25 µM (≈ 11.8 µg/mL).

Consider `COc1cc([C@@H]2c3cc4c(cc3[C@@H](O[C@@H]3O[C@@H]5CO[C@@H](C)O[C@H]5[C@H](O)[C@H]3O)[C@H]3COC(=O)[C@H]23)OCO4)cc(OC)c1O` [Etoposide], for which the pIC50 (in experiment [1]; in experiment [2]; in the experiment with lung carcinoma (A549)) was at least 6.00 in each case.

On to gentamycin, for which the “MIC against S. aureus (positive control)” value in the experiment with S. aureus (ATCC 25923) (6 h at 37 °C) was under 0.1 µg/mL. In addition, the “MIC against E. coli (positive control)” value against E. coli (ATCC 25922) is given as under 0.1 µg/mL.
